The test system of one experiment is mosquitoes. Conditions: in vivo; cited from earlier work.
Experiment [1] concerns Aedes aegypti. Nature of the experiment: General bioassay: treated human forearm in cage with host-seeking female mosquitoes, complete protection time (modified WHO 1996 protocol). The experiment is classed as in vivo. Conditions: 10% formulation in mineral oil, 1.5 mg (total composition) per cm^2 on human forearm skin. Here is the method: A black-eyed Liverpool strain of Aedes. aegypti was obtained from Dr. Carl Lowenberger, Simon Fraser University (SFU). Insects were reared under standardized conditions (60-70% relative humidity, 26-28° C., 14 h light:10 h dark photoperiod) in SFU's insectary. Neonate larvae that hatched in glass dishes of sterilized hypoxic water were transferred to trays of distilled water provisioned with Nutrafin® Basix Staple Food fish diet. Pupae were collected daily and separated by sex, and 15 females and 10 males were placed in a paper cup (7.5 cm diameter, 8.5 cm high) with a mesh lid. Emergent adults were fed a 10% (w/v) sucrose solution via braided cotton dental rolls. Arm-fed gravid females were offered water-containing paper cups, lined with paper-towel as an oviposition substrate. Candidate repellents and deterrents were bioassayed according to a modified protocol from the World Health Organization (1996). At least 1 hour prior to each bioassay, 75 host-seeking non blood-fed, nulliparous, 5- to 8-day-old female Aedes aegypti were placed into a wood-framed cage (26.5 cm on each side and 42.5 cm high) with a wooden floor, screened mesh sides and top, and a clear acrylic front fitted with a cotton stockinette sleeve (10 cm diameter). […] The time elapsed from experiment initiation to first bite was recorded as deterrent failure or complete protection time. […]

For a further experiment, the system named is Anopheles gambiae. Particulars: by itself or in combination with an adjuvant; cited from earlier work.
The test system of the next experiment is Culex quinquefasciatus. Conditions: by itself or in combination with an adjuvant; cited from earlier work.
Experiment [2] concerns Aedes aegypti. Conditions: by itself or in combination with an adjuvant; cited from earlier work.

Molecules are shown by their SMILES.

As for `C=CCSCCCCCCCCCO` [9-allylsulfanylnonan-1-ol], in the experiment with mosquitoes, the repellency to mosquitoes entry is “repellent”.
For the compound `C=CCSCCCCCCCCO` [8-allylsulfanyl-1-octanol], the “average duration of protection from bites by Aedes aegypti” value in the experiment with Aedes aegypti [1] (Experiments 1-6, 3-4 replicates) stood at 123 min. Moreover, the “deterring biting, effectiveness relative to DEET” value in the experiment with Anopheles gambiae, with Culex quinquefasciatus and in the experiment on Aedes aegypti [2] was “more effective than DEET” each time. The repellency to mosquitoes result in the experiment with mosquitoes was “repellent”.
With `C=CCSCCCCCCC(C)O` (centres unmarked) [8-allylsulfanyloctan-2-ol], the repellency to mosquitoes entry in the experiment on mosquitoes is “repellent”.
In the case of `C=CCSCCCCCCCC(=O)N(CC)CC` [(N,N)-diethyl-8-allylsulfanyl-octanamide], in the experiment on Aedes aegypti [1] (Experiment 7, 4 replicates), the “average duration of protection from bites by Aedes aegypti” value stood at 156 min.

The record behind these values is patent US9789044B2, “Compounds and methods for repelling blood-feeding arthropods and deterring their landing and feeding” (SCOTTS CANADA LTD, priority 2008, dated 2017).
